Bounds are passed on as bounds.

One may read the EC50 as the midpoint of the concentration-response curve.

In the test the test system is genotype A, "Long" strain RSV. Kind of test: RSV-A assay (CPE, ATPlite readout in Hep-2 cells). Format: cell-based. The conditions noted are these: human respiratory syncytial virus, HEp-2, Hep-2 cells, genotype A "Long" strain RSV, MOI 0.1; read-out: Human RSV-A (“Long” strain) EC50. The source says:
Hep-2 cells, (originally derived from tumors grown in irradiated-cortisonised weanling rats that had been injected with epidermoid carcinoma tissue from a person's larynx, but later found to be indistinguishable from HeLa cells by PCR DNA analysis), were used for the culturing of genotype A, “Long” strain RSV. Flasks were inoculated with RSV and viral stocks were collected once cytopathic effect (CPE) was greater than […]. Viral stocks in […] sucrose media were snap frozen using liquid nitrogen to increase viral stability. Viral stock titers were quantified by tissue culture infectious dose 50% (TCID50) using 8,000 cells per well and 3-fold viral dilutions across a 96-well plate, cultured for 4 days. Viral stock titers were also quantified by a plaque forming unit assay, as described elsewhere.
Following extensive parameter testing, the final assay is run as follows: Hep-2 cells are seeded into the inner 60 wells of a 96-well plate at 8,000 cells per well in a volume of 50 μL using Growth Media (DMEM without phenol red, 1% L-Glut, 1% Penn/Strep, 1% nonessential amino acids, 10% heat-inactivated FBS). 2-fold serial dilutions of control and test compounds are added to the wells in duplicate in a total volume of 25 μL. Viral stock is then added to the wells at a multiplicity of infection (MOI) of 0.1 in a volume of 25 μL, bringing the total volume of each well to 100 μL. The MOI is calculated using the PFU/mL, or TCID50 if unavailable. Each 96-well plate has a control column of 6 wells with cells and virus but no compound (negative control, max CPE), a column with cells but no compound or virus (positive control, minimum CPE), and a column with no cells or virus or compound (background plate/reagent control). The control wells with cells but no virus are given an additional 25 μL of growth media containing an equal quantity of sucrose as those wells receiving the viral stock in order to keep consistent in media and volume conditions. The outer wells of the plate are filled with 125 μL of moat media (DMEM, 1% Penn/Strep) to act as a thermal and evaporative moat around the test wells. Following a 5-day incubation period, the plates are read using ATPlite (50 uL added per well), which quantifies the amount of ATP (a measure of cell health) present in each well. Assay plates are read using the Envision luminometer. […] EC50 ranges are as follows: A<0.2 μM; B>0.2 μM.
A general note: ATP-based viability assays read luminescence as a measure of living cells.
As to `C[C@]1(C(N)=O)COc2c1cc([C@@](O)(CNC(=O)c1ccc(OC3CC3)c(-c3ccc(=O)[nH]c3)c1)C(F)(F)F)nc2-c1ccc(F)cc1` [Example 132], the EC50 was more than 200 nM.
Under `C[C@]1(C(N)=O)COc2c1cc([C@@](O)(CNC(=O)c1ccc(OC3CC3)c(N3CCOCC3)c1)C(F)(F)F)nc2-c1ccc(F)cc1` [Example 133] stands less than 200 nM.
`C[C@]1(C(N)=O)COc2c1cc([C@@](O)(CNC(=O)c1ccc(OC3CC3)c(N3CCCCC3)c1)C(F)(F)F)nc2-c1ccc(F)cc1` [Example 134]: the EC50 was more than 200 nM.
As for `C[C@]1(C(N)=O)COc2c1cc([C@@](O)(CNC(=O)c1ccc(OC3CC3)c(-c3ccnnc3)c1)C(F)(F)F)nc2-c1ccc(F)cc1` [Example 135], the EC50 is less than 200 nM.
In the case of `C[C@]1(C(N)=O)COc2c1cc([C@@](O)(CNC(=O)c1ccc(OC3CC3)c(-c3cccnc3C(F)(F)F)c1)C(F)(F)F)nc2-c1ccc(F)cc1` [Example 138], the EC50 is less than 200 nM.
Consider `C[C@]1(C(N)=O)COc2c1cc([C@@](O)(CNC(=O)c1ccc(OC3CC3)c(-c3cnccc3C(F)(F)F)c1)C(F)(F)F)nc2-c1ccc(F)cc1` [Example 139], for which the 50% effective concentration (EC50) was more than 200 nM.
With `C[C@]1(C(N)=O)COc2c1cc([C@@](O)(CNC(=O)c1ccc(-c3cccnc3)c(OC3CC3)c1)C(F)(F)F)nc2-c1ccc(F)cc1` [Example 141], the EC50 is less than 200 nM.
Take `Cc1cncc(-c2ccc(C(=O)NC[C@](O)(c3cc4c(c(-c5ccc(F)cc5)n3)OC[C@]4(C)C(N)=O)C(F)(F)F)cc2OC2CC2)c1` [Example 142]: the EC50 is more than 200 nM.
As for `C[C@]1(C(N)=O)COc2c1cc([C@@](O)(CNC(=O)c1ccc(-c3cncc(C(F)(F)F)c3)c(OC3CC3)c1)C(F)(F)F)nc2-c1ccc(F)cc1` [Example 143], the EC50 was more than 200 nM.
Regarding `Cc1ncccc1-c1ccc(C(=O)NC[C@](O)(c2cc3c(c(-c4ccc(F)cc4)n2)OC[C@]3(C)C(N)=O)C(F)(F)F)cc1OC1CC1` [Example 144], the EC50 is more than 200 nM.
As to `C[C@]1(C(N)=O)COc2c1cc([C@@](O)(CNC(=O)c1ccc(-c3cccnc3C(F)(F)F)c(OC3CC3)c1)C(F)(F)F)nc2-c1ccc(F)cc1` [Example 145], the EC50 is more than 200 nM.
Turning to `Cc1ccc(-c2ccc(C(=O)NC[C@](O)(c3cc4c(c(-c5ccc(F)cc5)n3)OC[C@]4(C)C(N)=O)C(F)(F)F)cc2OC2CC2)cn1` [Example 146], the EC50 was more than 200 nM.
For `C[C@]1(C(N)=O)COc2c1cc([C@@](O)(CNC(=O)c1ccc(-c3ccc(C(F)(F)F)nc3)c(OC3CC3)c1)C(F)(F)F)nc2-c1ccc(F)cc1` [Example 147], the EC50 was more than 200 nM.
For the compound `Cc1ccncc1-c1ccc(C(=O)NC[C@](O)(c2cc3c(c(-c4ccc(F)cc4)n2)OC[C@]3(C)C(N)=O)C(F)(F)F)cc1OC1CC1` [Example 148], the concentration giving a half-maximal response (EC50) was more than 200 nM.
For `C[C@]1(C(N)=O)COc2c1cc([C@@](O)(CNC(=O)c1ccc(-c3cnccc3C(F)(F)F)c(OC3CC3)c1)C(F)(F)F)nc2-c1ccc(F)cc1` [Example 149] the value was more than 200 nM; for `C[C@]1(C(N)=O)COc2c1cc([C@@](O)(CNC(=O)c1ccc(-c3ccncc3)c(OC3CC3)c1)C(F)(F)F)nc2-c1ccc(F)cc1` [Example 150], less than 200 nM.
Regarding `Cc1cc(-c2ccc(C(=O)NC[C@](O)(c3cc4c(c(-c5ccc(F)cc5)n3)OC[C@]4(C)C(N)=O)C(F)(F)F)cc2OC2CC2)ccn1` [Example 151], the half-maximal effective concentration (EC50) is less than 200 nM.
With `C[C@]1(C(N)=O)COc2c1cc([C@@](O)(CNC(=O)c1ccc(-c3ccnc(C(F)(F)F)c3)c(OC3CC3)c1)C(F)(F)F)nc2-c1ccc(F)cc1` [Example 152], the EC50 was more than 200 nM.
`Cc1cnccc1-c1ccc(C(=O)NC[C@](O)(c2cc3c(c(-c4ccc(F)cc4)n2)OC[C@]3(C)C(N)=O)C(F)(F)F)cc1OC1CC1` [Example 153]: the EC50 was more than 200 nM.
For `C[C@]1(C(N)=O)COc2c1cc([C@@](O)(CNC(=O)c1ccc(-c3ccncc3C(F)(F)F)c(OC3CC3)c1)C(F)(F)F)nc2-c1ccc(F)cc1` [Example 154], the concentration for a half-maximal effect (EC50) was more than 200 nM.
As to `C[C@]1(C(N)=O)COc2c1cc([C@@](O)(CNC(=O)c1ccc(-c3ccccn3)c(OC3CC3)c1)C(F)(F)F)nc2-c1ccc(F)cc1` [Example 155], the 50% effective concentration (EC50) was more than 200 nM.
In the case of `C[C@]1(C(N)=O)COc2c1cc([C@@](O)(CNC(=O)c1ccc(-c3ccc(C(F)(F)F)cn3)c(OC3CC3)c1)C(F)(F)F)nc2-c1ccc(F)cc1` [Example 156], the EC50 was more than 200 nM.
As to `Cc1ccc(-c2ccc(C(=O)NC[C@](O)(c3cc4c(c(-c5ccc(F)cc5)n3)OC[C@]4(C)C(N)=O)C(F)(F)F)cc2OC2CC2)nc1` [Example 157], the EC50 is more than 200 nM.
`Cc1cccc(-c2ccc(C(=O)NC[C@](O)(c3cc4c(c(-c5ccc(F)cc5)n3)OC[C@]4(C)C(N)=O)C(F)(F)F)cc2OC2CC2)n1` [Example 158]: the 50% effective concentration (EC50) was more than 200 nM.
As to `C[C@]1(C(N)=O)COc2c1cc([C@@](O)(CNC(=O)c1ccc(N3CCC3)c(OC3CC3)c1)C(F)(F)F)nc2-c1ccc(F)cc1` [Example 159], the 50% effective concentration (EC50) is less than 200 nM.
As to `C[C@]1(C(N)=O)COc2c1cc([C@@](O)(CNC(=O)c1ccc(N3CCOCC3)c(OC3CC3)c1)C(F)(F)F)nc2-c1ccc(F)cc1` [Example 160], the EC50 was more than 200 nM.
As to `C[C@]1(C(N)=O)COc2c1cc([C@@](O)(CNC(=O)c1ccc(N3CCCCC3)c(OC3CC3)c1)C(F)(F)F)nc2-c1ccc(F)cc1` [Example 161], the EC50 is more than 200 nM.
Turning to `C[C@]1(C(N)=O)COc2c1cc([C@@](O)(CNC(=O)c1ccc(-c3cccc(C(F)(F)F)n3)c(OC3CC3)c1)C(F)(F)F)nc2-c1ccc(F)cc1` [Example 162], the half-maximal effective concentration (EC50) was more than 200 nM.
For `C[C@]1(C(N)=O)COc2c1cc([C@@](O)(CNC(=O)c1ccc(-c3ncccn3)c(OC3CC3)c1)C(F)(F)F)nc2-c1ccc(F)cc1` [Example 163] the value was more than 200 nM; for `Cc1ncc(-c2ccc(C(=O)NC[C@](O)(c3cc4c(c(-c5ccc(F)cc5)n3)OC[C@]4(C)C(N)=O)C(F)(F)F)cc2OC2CC2)cn1` [Example 164], more than 200 nM; for `C[C@]1(C(N)=O)COc2c1cc([C@@](O)(CNC(=O)c1ccc(-c3cnc(C4CC4)nc3)c(OC3CC3)c1)C(F)(F)F)nc2-c1ccc(F)cc1` [Example 165], more than 200 nM.
`C[C@]1(C(N)=O)COc2c1cc([C@@](O)(CNC(=O)c1ccc(-c3cnccn3)c(OC3CC3)c1)C(F)(F)F)nc2-c1ccc(F)cc1` [Example 166]: the concentration for a half-maximal effect (EC50) was less than 200 nM.
Under `Cc1cnc(-c2ccc(C(=O)NC[C@](O)(c3cc4c(c(-c5ccc(F)cc5)n3)OC[C@]4(C)C(N)=O)C(F)(F)F)cc2OC2CC2)cn1` [Example 167] stands more than 200 nM; under `C[C@]1(C(N)=O)COc2c1cc([C@@](O)(CNC(=O)c1ccc(-c3ccnnc3)c(OC3CC3)c1)C(F)(F)F)nc2-c1ccc(F)cc1` [Example 168], less than 200 nM; under `C[C@]1(C(N)=O)COc2c1cc([C@@](O)(CNC(=O)c1ccc(-c3ccc(=O)[nH]c3)c(OC3CC3)c1)C(F)(F)F)nc2-c1ccc(F)cc1` [Example 169], more than 200 nM.
On to `C[C@]1(C(N)=O)COc2c1cc([C@@](O)(CNC(=O)c1ccc(-c3ccncn3)c(OC3CC3)c1)C(F)(F)F)nc2-c1ccc(F)cc1` [Example 170], for which the EC50 is more than 200 nM.
Turning to `C[C@]1(C(N)=O)COc2c1cc([C@@](O)(CNC(=O)c1ccc(-c3ncco3)c(OC3CC3)c1)C(F)(F)F)nc2-c1ccc(F)cc1` [Example 171], the concentration giving a half-maximal response (EC50) is less than 200 nM.
Turning to `Cc1noc(C)c1-c1ccc(C(=O)NC[C@](O)(c2cc3c(c(-c4ccc(F)cc4)n2)OC[C@]3(C)C(N)=O)C(F)(F)F)cc1OC1CC1` [Example 172], the 50% effective concentration (EC50) was more than 200 nM.
For the compound `C[C@]1(C(N)=O)COc2c1cc([C@@](O)(CNC(=O)c1ccc(-c3nccs3)c(OC3CC3)c1)C(F)(F)F)nc2-c1ccc(F)cc1` [Example 173], the concentration giving a half-maximal response (EC50) was more than 200 nM.
Under `C[C@]1(C(N)=O)COc2c1cc([C@@](O)(CNC(=O)c1ccc(-c3cscn3)c(OC3CC3)c1)C(F)(F)F)nc2-c1ccc(F)cc1` [Example 174] stands more than 200 nM; under `C[C@]1(C(N)=O)COc2c1cc([C@@](O)(CNC(=O)c1ccc(-c3cncs3)c(OC3CC3)c1)C(F)(F)F)nc2-c1ccc(F)cc1` [Example 175], less than 200 nM.
Turning to `Cc1ncc(-c2ccc(C(=O)NC[C@](O)(c3cc4c(c(-c5ccc(F)cc5)n3)OC[C@]4(C)C(N)=O)C(F)(F)F)cc2OC2CC2)s1` [Example 176], the EC50 was more than 200 nM.
As for `COc1ncc(-c2ccc(C(=O)NC[C@](O)(c3cc4c(c(-c5ccc(F)cc5)n3)OC[C@]4(C)C(N)=O)C(F)(F)F)cc2OC2CC2)s1` [Example 177], the EC50 was more than 200 nM.

These data come from patent US11505558B1, “Antiviral heterocyclic compounds” (Enanta Pharmaceuticals, Inc., priority 2019, dated 2022).
